Test results reported in ChEMBL document CHEMBL1147941, “Novel morpholin-3-one derivatives induced apoptosis and elevated the level of P53 and Fas in A549 lung cancer cells” (Bioorg Med Chem, 2007).
Converted amounts (≈) assume the structure as drawn. The source made the active and inactive calls. The calls are words filed in the database; no cut-off is given here.

Key:
[1] = tested on: A549; assay: Induction of apoptosis in A549 cells assessed as DNA fragmentation at 40 ug/ml after 48 hrs by acridine orange assay; assay type: functional, cell-based; settings: Homo sapiens
[2] = tested on: A549; assay: Effect on morphology in A549 cells assessed as formation of apoptotic bodies at 40 ug/ml after 48 hrs; assay type: functional, cell-based; settings: Homo sapiens
[3] = tested on: A549; assay: Increase in Fas protein level in A549 cells at 40 ug/ml after 48 hrs relative to control; assay type: functional, Homo sapiens
[4] = tested on: A549; assay: Increase in P53 protein level in A549 cells at 40 ug/ml after 48 hrs relative to control; assay type: functional, Homo sapiens
[5] = tested on: A549; assay: Cell cycle arrest in A549 cells assessed as accumulation at G2/M phase at 40 ug/ml after 48 hrs; assay type: functional, Homo sapiens
[6] = tested on: A549; assay: Antiproliferative activity against human A549 cells after 48 hrs by MTT assay; assay type: functional, cell-based; settings: A549, 48 h
[7] = tested on: A549; assay: Cell cycle arrest in A549 cells assessed as accumulation at G1 phase at 40 ug/ml after 48 hrs; assay type: functional, Homo sapiens
[8] = tested on: A549; assay: Cell cycle arrest in A549 cells assessed as accumulation at S phase at 40 ug/ml after 48 hrs; assay type: functional, Homo sapiens

SMILES	Activity [1]	Activity [2]	Activity [3]	Activity [4]	Activity [5]	IC50 [6]	Activity [7]	Activity [8]
O=C1COC(COc2ccc([N+](=O)[O-])cc2)CN1c1ccccc1 (stereo not given)	Active	Active	40.97%	33.73%	18.64%	16.6 µg/mL (≈ 50.6 µM)	73.3%	–
O=C1COC(COc2ccc([N+](=O)[O-])cc2)CN1c1ccc(Cl)cc1 (stereo not given)	Active	–	21.53%	23.98%	21.93%	38 µg/mL (≈ 105 µM)	63.25%	14.82%
COc1ccc(N2CC(COc3ccc(Cl)cc3)OCC2=O)cc1 (stereo not given)	Active	–	23.45%	22.41%	–	22.9 µg/mL (≈ 65.9 µM)	79.44%	10.99%
